Results from US20090035364A1, “PARA-SUBSTITUTED 2-ALKOXYPHENOL COMPOUNDS” (priority 2006, published 2009).

What was measured:
[1] = Cooling intensity: panelists taste aqueous solutions, compared with menthol at 2 ppm; type: in vivo, human; conditions: tasted by a small group of panelists
[2] = Application in toothpaste: panelist's teeth brushed with toothgel containing the compound; type: in vivo, human; conditions: 0.10 g of 10% solution in ethanol in opaque toothgel with peppermint oil and saccharin; after brushing and rinsing
Description: The chemicals are mixed in the toothgel, a piece of toothgel is put on a toothbrush and a panelist's teeth are brushed. The mouth is rinsed with water and the water is spat out. […] The cooling perception lasts for 45 minutes.

melting point | SMILES | Concentration having a cooling intensity similar to or slightly higher than that of a solution of menthol at 2 ppm [1] | also measured
 | COc1cc(CNC(c2ccccc2)c2ccccc2)ccc1O [Example 1, 4-((benzhydrylamino)methyl)-2-methoxyphenol] | 0.5 ppm | 
 | COc1cc(COC(c2ccccc2)c2ccccc2)ccc1O [Example 4, 4-((benzhydryloxy)methyl)-2-methoxyphenol] | 1.0 ppm | Cooling sensation felt by the panelist [2]: intense cooling sensation; Duration of cooling perception [2]: 45 min
148 to 150 °C | COc1cc(CNC2c3ccccc3-c3ccccc32)ccc1O [Example 5, 4-((9H-fluoren-9-ylamino)methyl)-2-methoxyphenol] |  | 
89 to 91 °C | CCOc1cc(CNC(c2ccccc2)c2ccccc2)ccc1O [Example 6, 4-((benzhydrylamino)methyl)-2-ethoxyphenol] |  | 
 | CC1CCC(C(C)C)C(O)C1 (centres unmarked) [I-Menthol, reference compound] | 2.0 ppm | 
 | CCNC(=O)C1CC(C)CCC1C(C)C (centres unmarked) [N-ethyl p-menthanecarboxamide (WS-3), N-ethyl p-menthanecarboxamide, reference compound] | 1.5 ppm | 
